Results from article PMC10578023 (Cell Communication and Signaling : CCS, 2023).

Tests used:
[1] = system: panel of 207 kinase proteins; test: Kinase selectivity panel, ADP-Glo kinase assay; format: biochemical, human; conditions: 1 μM
Protocol: The selectivity of QL-1200186 was measured using a panel of 207 kinase proteins. QL-1200186 (final concentration = 1 μM) was placed in a 384-well plate. Different kinase solutions were configured in kinase buffer, HEPES (50 mM), MgCl2 (10 mM), 0.01% Brij, dithiothreitol (2 mM), and then transferred to 384-well plates. After incubation for 10 min at RT, the substrate and adenosine triphosphate were added, and the reaction was allowed to continue for 60 min. Kinase selectivity was determined by the ADP-Glo™ Kinase Assay (V9103; Promega, Fitchburg, WI, USA). Finally, a microplate reader (BMG Labtech, Ortenberg, Germany) was used to measure the luminescence signal. After data analysis, heatmaps and kinase selection trees were drawn using Prism 8.0.2 (GraphPad, La Jolla, CA, USA) and KinMap (www.kinmap.org/), respectively.

logD7.4 = format: physicochemical; conditions: pH 7.4
TYK2/JAK2 [2] = test: IL-12/IL-18-induced IFNγ production in NK-92 cells, ELISA; format: cell-based, human
Protocol: (§1) The inhibitory effect of QL-1200186 on IL-12/IL-18-induced IFNγ production in NK cells or human whole blood was determined by enzyme-linked immunosorbent assay (ELISA). NK92 cells were stimulated with recombinant human IL-12 (2 ng/mL; 200–12; PeproTech, Cranbury, NJ, USA) and recombinant human IL-18 (5 ng/mL; 9124-IL-050/CF; R&D Systems, Minneapolis, MN, USA) with or without QL-1200186 for 24 h at 37 °C. For human whole blood cells, whole blood (200 μL) was preincubated with the compound for 1 h and then stimulated with recombinant human IL-12 (2 ng/mL) or recombinant human IL-18 (10 ng/mL) for 24 h. After centrifugation, the supernatant was collected, and IFNγ production in the supernatant was measured with human IFNγ ELISA kits according to the manufacturer’s instructions (Biolegend, 430,104).

[3] = Liver microsome metabolic stability; format: in vitro ADME
Protocol: (§2) The ADME properties of QL-1200186 in vitro were measured by the following assays: Caco-2 permeability assay, CYP inhibition assay, protein binding assay, and liver microsome assay. Each assay was performed as previously described.

TYK2/JAK2 [4] = test: IL-12/IL-18-induced IFNγ production in human whole blood, ELISA; format: cell-based; conditions: IL-12-induced
Protocol: as §1

[5] = Pharmacokinetic study in C57BL/6 mice; format: in vivo
Protocol: The PK study was conducted using healthy male C57BL/6 mice (18–22 g, n = 6). Mice were fed and given free access to water prior to dosing. QL-1200186 was administered via oral or intravenous routes at doses of 10 mg/kg and 1 mg/kg, respectively. Blood samples were collected at 0.0833, 0.25, 0.5, 1, 2, 4, 8 and 24 h from the saphenous vein. Plasma was separated within 1 h of sampling by centrifugation at 1000 g. Liquid chromatography–tandem mass spectrometry of the sample was carried out on a mass spectrometer (API 5500; AB Sciex, Framingham, MA, USA). Chromatographic separation was achieved using a C18 column (2.6 µm, 50 × 3.0 mm; Kinetex; Phenomenex, Torrance, CA, USA). The main PK parameters were calculated by WinNonlin 8.0 (Certara, Princeton, NJ, USA).

JAK1/JAK3 = test: IL-2-stimulated pSTAT5 in human PBMC; format: cell-based; conditions: @10μM
Protocol: With regard to IL-2-stimulated JAK1/3 activation in human PBMCs, after 1 h of incubation with QL-1200186, human PBMCs were stimulated with human IL-2 (20 ng/mL; C013; Novoprotein) for 20 min.
(§3) The stimulations stated above were terminated with prewarmed Lyse/Fix Buffer (558,049; BD Biosciences, San Jose, CA, USA) for 10 min. Cells were stained with an anti-cluster of differentiation (CD)3 fluorescein isothiocyanate (FITC) antibody (required for PBMCs but not for the other cell types), washed, and permeabilized on ice using Perm III Buffer (558,050; BD Biosciences) prior to staining with an Alexa Fluor 647 anti-phosphorylated (p)STAT5 (pY694) antibody for 30 min and analyzed by flow cytometry. Phosphorylation of STAT5 was quantified by the median fluorescence intensity (MFI) after gating on the CD3-positive population.

[6] = Caco-2 permeability assay; format: in vitro ADME
Protocol: as §2

TYK2/JAK1 = test: IFNα-induced pSTAT1 in CD19+ B cells of human PBMCs; format: cell-based
Protocol: The reaction was terminated by collecting cells for surface staining. Cells were stained with anti-CD3 FITC (300406; Biolegend, San Diego, CA, USA), anti-CD19 APC (555415; BD Biosciences) or aqua fluorescent reactive dye BV421 (L34966A; Invitrogen, Carlsbad, CA, USA) antibodies for 20 min. After washing, fixation buffer (557870; BD Biosciences) was added and incubated for 10 min. Cells were washed and permeabilized on ice using Perm III Buffer (558050; BD Biosciences). Cells were stained with PE anti-PSTAT1 antibody (562069; BD Biosciences) for 30 min and analyzed by flow cytometry.

[7] = rats, data not shown
[8] = target: T1, human TYK2 pseudokinase domain (JH2) (Homo sapiens, UniProt P29597); test: TYK2 pseudokinase domain (JH2) binding assay, HTRF tracer competition
T1 construct: was added to the recombinant TYK2 pseudokinase domain
T1 sequence (P29597 589-875 limits assumed): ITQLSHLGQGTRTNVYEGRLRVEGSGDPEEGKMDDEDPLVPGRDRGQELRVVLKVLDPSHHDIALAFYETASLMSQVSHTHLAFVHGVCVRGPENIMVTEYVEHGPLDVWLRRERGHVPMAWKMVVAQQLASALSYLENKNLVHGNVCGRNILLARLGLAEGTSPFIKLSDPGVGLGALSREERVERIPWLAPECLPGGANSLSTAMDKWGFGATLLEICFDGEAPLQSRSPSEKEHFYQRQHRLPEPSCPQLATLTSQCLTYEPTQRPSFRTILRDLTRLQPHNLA
Protocol: An assay that measures the ability of a compound to bind to the TYK2 pseudokinase domain through competition with a tracer was employed. First, human polyhistidine-tag (his-tagged) TYK2 pseudokinase was added to different concentrations of QL-1200186. […] After 1 h at RT, the homogeneous time-resolved fluorescence (HTRF) signal was measured on a plate reader (Envision™; PerkinElmer, Waltham, MA, USA).

JAK2/JAK2 = test: GM-CSF-stimulated pSTAT5 in U937 cells; format: cell-based, human
Protocol: With respect to GM-CSF-stimulated JAK2 activation in U937 cells (Cobioer Biosciences, CBP60277), after 1 h of treatment with QL-1200186, U937 cells were stimulated with GM-CSF (20 ng/mL; C003; Novoprotein, Suzhou, China) for 15 min.
as §3

## CNC(=O)c1cnc2cc1Nc1cc(cc(-c3ccn(C)n3)c1OC)CCOCc1cccc(n1)N2 [QL-1200186, 5^6-methoxy-N-methyl-5^5-(1-methyl-1H-pyrazol-3-yl)-8-oxa-2,4-diaza-1(2,6),3(2,4)-dipyridina-5(1,3)-benzenacyclononaphane-3^5-carboxamide]
[1]
  inhibition rates for all 207 kinases tested: below 50%
logD7.4
  logD7.4: 3.6
TYK2/JAK2 [2]
  IC50: 32.5 nM
[3]; Dog
  Metabolic Stability L.M. T1/2: 1.42 h
[3]; Human
  Metabolic Stability L.M. T1/2: > 3.107 h
[3]; Monkey
  Metabolic Stability L.M. T1/2: 1.2 h
[3]; Mouse
  Metabolic Stability L.M. T1/2: 1.28 h
[3]; Rat
  Metabolic Stability L.M. T1/2: 1.823 h
TYK2/JAK2 [4]
  IFNγ production in human whole blood: significantly reduced
[5]; intravenous 1 mg/kg
  AUC: 1482 ng·h/mL
  CL: 11.6 mL/min/kg
  MRTInf: 1.22 h
  T1/2: 1.45 h
  Vss: 0.842 L/kg
[5]; oral 10 mg/kg
  AUC: 20320 ng·h/mL
  Cmax: 3543 ng/mL
  F (bioavailability): 137%
  MRTInf: 4.34 h
  T1/2: 2.73 h
JAK1/JAK3
  IL-2- pSTAT5 in PBMC (JAK1/JAK3) inhibition: ~18% inhibition @10μM
[6]
  Caco-2 ER (efflux ratio): 1.4
TYK2/JAK1
  IC50: 1.43 nM
[7]
  safety in toxicological studies: excellent safety
[8]; TYK2 JH2 over JAK1 JH2 binding
  Selectivity fold (TYK2/JAK1): 164 fold
[8]; recombinant TYK2 JH2 domain
  IC50: 0.06 nM
JAK2/JAK2; @10μM
  GM-CSF-pSTAT5 in U937 (JAK2/JAK2) inhibition: no inhibition @10μM
JAK2/JAK2; JAK2/JAK2-dependent, read-out: GM-CSF-stimulated STAT5 phosphorylation IC50
  IC50: > 10000 nM
